Reference: patent US5256820A, “1-alkyl-2-acyl-1,2-disulfonylhydrazines” (Yale University, priority 1991, dated 1993)
“Also recorded” adds a separate entry of the source. Values belong to the compound of their own block, whether it stands above or below them.

Tests used:
[1] = Shyam et al. J. Med. Chem. (1990) 33:2259-2264; cited from earlier work
[2] = system: GST (glutathione-S-transferase), equine liver enzyme; assay: GST-catalyzed GSH activation of prodrug; format: biochemical; conditions: 13.5 units/ml equine liver GST
From the text: Therefore, tumors resistant to conventional chloroethylating agents because of the protective effect conferred by high levels of intracellular thiols, may be more sensitive to 2-acyl-1,2-bis(methylsulfonyl)-1-methyl (or 2-chloroethyl)hydrazines. […] Although elevation of GST levels has been associated with increased resistance to a variety of alkylating agents, such a change is expected to increase sensitivity to the thiol-activated prodrugs.

[3] = Prodrug activation by GSH, methanol generation determined using alcohol oxidase
Description: Our belief is confirmed by the following experiment in which we incubated a solution of 2-benzoyl-1,2-bis(methylsulfonyl)-1-methylhydrazine (R=C6 H5) in phosphate buffer (pH 7.4) at 37° C. in the presence and absence of GSH. The amount of methanol generated in 10 min, determined using alcohol oxidase by methodology described by Penketh et al. (1990) 33:730-732, was used as a measure of activation of the prodrug. In the presence of 1 mM GSH, the amount of methanol generated increased approximately 10-fold, relative to that occurring in phosphate buffer alone. […] In the case of the 1-(2-chloroethyl) derivative (the compound of Example 6), 22although precise quantitation was difficult due to the limitations of the assay, the compound of Example 6 gave a 6- to 7-fold greater amount of alkylated product when reacted with the nucleophile 4-(4'-nitrobenyl)pyridine in the presence of 5 mM GSH for 30 min at 37° C. than in its absence.

[4] = Stewart and Evans (1989); cited from earlier work
L1210 leukemia = assay: Survival time of mice bearing the L1210 leukemia; format: in vivo, mouse; conditions: for antineoplastic activity / curative effect (in words): L1210 leukemia mice; for % 60-day survivors / % T/C (average survival time of treated/control mice × 100) / AvΔ wt % (average percent change in body weight from onset to termination of therapy): at opt. effective daily dose; for % T/C (average survival time of treated/control mice × 100): 60-day survivors not included; for AvΔ wt % (average percent change in body weight from onset to termination of therapy): vehicle control +2.0; for Opt. effective daily dose: once daily for six consecutive days, beginning 24 h after tumor implantation, L1210 mice
Description: The antineoplastic activity of each of the compounds of Examples 1-6 was assessed by measuring their effects on the survival time of mice bearing the L1210 leukemia by the method generally disclosed in Shyam et al. J. Med. Chem. (1990) 33:2259-2264. The compounds were administered once daily for six consecutive days. Percent change in body weight from onset to termination of therapy was recorded. The results are summarized in Table I. All of the compounds tested produced at least partial 60-day "cures" of mice bearing the L1210 leukemia. […] This compound also produced 80-90% "cures" at 10 and 15 mg/kg×6.
Effects of 2-Acyl-1,2-bis(methylsulfonyl)-1-
^a Administered once daily for six consecutive days, beginning 24 h
after tumor implantation, with 5-10 mice being used per group.
^b Average day of death for untreated tumorbearing mice was 8.4.
^c Average percent change in body weight from onset to termination of
therapy. Average percent change in body weight for vehicletreated control
^d % T/C = average survival time of treated/control mice × 100;
60day survivors are listed separately and are not included in this

[5] = Hydrolysis in the presence of bovine serum; format: in vitro ADME; conditions: for Rate of hydrolysis: 200 μM solution
From the text: (§1) To verify that the prodrugs would be converted to alkylating species in vivo, we performed studies on the kinetics of hydrolysis of these compounds in the presence of serum and also in the presence of proteinase K (a protease of low specificity). […] Serum from different sources, i.e., mouse, bovine and man, were not equivalent in their activities or in their rank order of substrate specificity. […] Table IV reports the effects of bovine serum concentrates on hydrolysis of two compounds--the compounds of Example 1 and Example 6.
Effects of Bovine Serum Concentration on the
^a Expressed nmol/ml/min for a 200 μM solution.

Water solubility = format: physicochemical
[6] = Alkylation of 4-(4'-nitrobenzyl)pyridine in presence and absence of bovine serum; conditions: 4 mM compound, 37° C., 1 h, 100 mM phosphate buffer pH 7.4
Description: Serum was capable of stimulating the alkylation of the model nucleophile, 4-(4'-nitrobenzyl)pyridine, by 2-acyl-1,2-bis(methylsulfonyl)-1-(2-chloroethyl)hydrazines, providing direct evidence for the serum-dependent generation of the alkylating species from these prodrugs (Table V).
Relative Alkylation of 4-(4'-Nitrobenzyl)pyridine
(NBP) by 4 mM 2-Acetyl-1,2-bis(methylsulfonyl)-1-(2-
chloroethyl)hydrazine at 37° C. for 1 h in 100 mM Phosphate
Buffer (pH 7.4) in the Presence and Absence of 20% Bovine

[7] = Spontaneous decomposition (hydrolysis) in aqueous phosphate buffer, phenol red proton release assay; format: physicochemical
Description: The compounds of the invention are relatively stable. As a measure of their stability, spontaneous decomposition in aqueous media was measured in phosphate buffer, pH 7.4 (37° C.). Hydrolysis at N-1 would result in the generation of a carboxylic acid and the corresponding 1,2-bis(methylsulfonyl)-1-(2-chloroethyl)hydrazine. Since both of these compounds are ionized under these conditions, the release of protons can be used to follow the decomposition of these and related compounds. The release of protons can be assayed by following the decrease in absorbance at 560 nm of a weakly buffered (1 mM potassium phosphate) phenol red (21 mg/L) solution. The assay has been calibrated using HC1 standards. […] The spontaneous hydrolysis of the compound of Example 1 at pH 7.4, 37° C. in 1 mM phosphate buffer occurs at approximately 0.7% of the rate of the corresponding prior art compounds [1,2,2-tris(methylsulfonyl)-1-(2-chloroethyl)hydrazine] under the same conditions. The rate of hydrolysis was highly sensitive to changes in temperature and pH (Tables II and III). […] At pH 7.4, 37° C., a 200 μM solution of the compound of Example 1 hydrolyzes at the rate of approximately 0.6% per hour. […] Therefore, stable aqueous solutions of this agent can be formulated. The other analogs synthesized according to Examples 2-6 also hydrolyzed at relatively slow rates.

[8] = Hydrolysis in the presence of serum from different sources (mouse, bovine, man); format: in vitro ADME; conditions: bovine and man, in all cases
From the text: as §1

SMILES: CN(N(S(C)(=O)=O)S(C)(=O)=O)S(C)(=O)=O [1-Methyl-1,2,2-tris(methylsulfonyl)hydrazine]
antineoplastic activity (in words) [1]: also showed antineoplastic activity
toxicity (in words) [1]: relatively less toxic

effect of GST on GSH activation rate (in words) [2]: doubling the activation rate
increase in amount of methanol generated relative to phosphate buffer alone ([3]; 1 mM GSH, 10 min, phosphate buffer pH 7.4, 37° C.): approximately 10 fold
SMILES: CN(N(C(=O)c1ccccc1)S(C)(=O)=O)S(C)(=O)=O [2-benzoyl-1,2-bis(methylsulfonyl)-1-methylhydrazine]
dependence of rate of activation on GSH concentration (in words) ([3]; GSH): directly proportional to the GSH concentration

SMILES: CCCCS(=N)(=O)CCC(N)C(=O)O (stereo not drawn) [Buthionine sulfoximine]
reversal of resistance to alkylating agents (in words) [4]: reverse this resistance by reducing cellular GSH levels

SMILES: CC(=O)N(N(CCCl)S(C)(=O)=O)S(C)(=O)=O [Example 1, 1-Acetyl-1,2-bis(methylsulfonyl)-2-(2-chloroethyl)hydrazine]
60-day "cures" (L1210 leukemia; 7.5 mg/kg, six daily intraperitoneal doses): 80%
antineoplastic activity / curative effect (in words) (L1210 leukemia): highly active against the L1210 leukemia; also recorded: produced their curative effects at relatively low dosage levels
% 60-day survivors (L1210 leukemia): 80%
% T/C (average survival time of treated/control mice × 100) (L1210 leukemia): 341%
AvΔ wt % (average percent change in body weight from onset to termination of therapy) (L1210 leukemia): +1.0%
Opt. effective daily dose (L1210 leukemia): 7.5 mg/kg
Rate of hydrolysis ([5]; 0% v/v bovine serum): 0.02 nmol/mL/min
Rate of hydrolysis ([5]; 5% v/v bovine serum): 0.055 nmol/mL/min
Rate of hydrolysis ([5]; 10% v/v bovine serum): 0.10 nmol/mL/min
Rate of hydrolysis ([5]; 20% v/v bovine serum): 0.26 nmol/mL/min
decrease in ability of bovine serum to hydrolyze the compound after boiling ([5]; boiled dilute solutions of bovine serum): > 75%
water solubility (in words) (Water solubility): most water-soluble analogs of this class
Relative alkylation of NBP ([6]; bovine serum (20%)): 5.7
Relative alkylation of NBP ([6]; no serum): 1.0
Relative rate of hydrolysis ([7]; 23 °C (37 °C = 1.00)): 0.21
Relative rate of hydrolysis ([7]; 30 °C (37 °C = 1.00)): 0.57
Relative rate of hydrolysis ([7]; 32 °C (37 °C = 1.00)): 0.72
Relative rate of hydrolysis ([7]; 37 °C (reference, 1.00)): 1.00
increase of hydrolysis rate with pH ([7]; for every 0.2 unit rise in pH, pH 7.4-7.8 range): approximately 50%
change of hydrolysis rate with temperature ([7]; for every 5° C. rise in temperature): double
Relative rate of hydrolysis ([7]; pH 7.4 (pH 7.8 = 1.00)): 0.48
rate of spontaneous hydrolysis relative to prior art compound ([7]; pH 7.4, 37° C., 1 mM phosphate buffer, vs 1,2,2-tris(methylsulfonyl)-1-(2-chloroethyl)hydrazine): approximately 0.7%
Relative rate of hydrolysis ([7]; pH 7.5 (pH 7.8 = 1.00)): 0.57
Relative rate of hydrolysis ([7]; pH 7.6 (pH 7.8 = 1.00)): 0.70
Relative rate of hydrolysis ([7]; pH 7.8 (reference, 1.00)): 1.00
degraded at 1 h, 200 µM ([7]; phosphate buffer, 200 μM solution, pH 7.4, 37° C., read-out: rate of hydrolysis): ~0.6%

SMILES: CCC(=O)N(N(CCCl)S(C)(=O)=O)S(C)(=O)=O [Example 2, 1,2-Bis(methylsulfonyl)-1-(2-chloroethyl)-2-propionylhydrazine]
"cures" of mice bearing the L1210 leukemia (L1210 leukemia; 5 mg/kg×6): 60%
"cures" of mice bearing the L1210 leukemia (L1210 leukemia; 10 and 15 mg/kg×6): 80-90%
antineoplastic activity / curative effect (in words) (L1210 leukemia): appeared to be the most potent; also recorded: produced their curative effects at relatively low dosage levels
% 60-day survivors (L1210 leukemia): 90%
% T/C (average survival time of treated/control mice × 100) (L1210 leukemia): 217%
AvΔ wt % (average percent change in body weight from onset to termination of therapy) (L1210 leukemia): -6.4%
Opt. effective daily dose (L1210 leukemia): 10 mg/kg
water solubility (in words) (Water solubility): most water-soluble analogs of this class

SMILES: CCCC(=O)N(N(CCCl)S(C)(=O)=O)S(C)(=O)=O [Example 3, 1,2-Bis(methylsulfonyl)-1-(n-butyryl)-2-(2-chloroethyl)hydrazine]
% 60-day survivors (L1210 leukemia): 20%
% T/C (average survival time of treated/control mice × 100) (L1210 leukemia): 207%
AvΔ wt % (average percent change in body weight from onset to termination of therapy) (L1210 leukemia): 0.0%
Opt. effective daily dose (L1210 leukemia): 10 mg/kg

SMILES: CC(C)(C)C(=O)N(N(CCCl)S(C)(=O)=O)S(C)(=O)=O [Example 4, 1,2-Bis(methylsulfonyl)-1-(2-chloroethyl)-2-pivaloylhydrazine]
% 60-day survivors (L1210 leukemia): 60%
% T/C (average survival time of treated/control mice × 100) (L1210 leukemia): 302%
AvΔ wt % (average percent change in body weight from onset to termination of therapy) (L1210 leukemia): 0.0%
Opt. effective daily dose (L1210 leukemia): 20 mg/kg

SMILES: COCC(=O)N(N(CCCl)S(C)(=O)=O)S(C)(=O)=O [Example 5, 1,2-Bis(methylsulfonyl)-1-(2-chloroethyl)-2-methoxyacetylhydrazine]
"cures" of tumor-bearing mice (L1210 leukemia; 10 mg/kg×6): 100%
antineoplastic activity / curative effect (in words) (L1210 leukemia): produced their curative effects at relatively low dosage levels
% 60-day survivors (L1210 leukemia): 100%
AvΔ wt % (average percent change in body weight from onset to termination of therapy) (L1210 leukemia): -8.4%
lethality (L1210 leukemia; higher dose levels examined (above 10 mg/kg×6)): lethal at the higher dose levels examined
Opt. effective daily dose (L1210 leukemia): 10 mg/kg
sensitivity to serum hydrolysis (in words) [8]: two most sensitive compounds
water solubility (in words) (Water solubility): most water-soluble analogs of this class

SMILES: CS(=O)(=O)N(CCCl)N(C(=O)c1ccccc1)S(C)(=O)=O [Example 6, 1-Benzoyl-1,2-bis(methylsulfonyl)-2-(2-chloroethyl)hydrazine]
% 60-day survivors (L1210 leukemia): 20%
% T/C (average survival time of treated/control mice × 100) (L1210 leukemia): 160%
AvΔ wt % (average percent change in body weight from onset to termination of therapy) (L1210 leukemia): -7.7%
Opt. effective daily dose (L1210 leukemia): 20 mg/kg
sensitivity to serum hydrolysis (in words) [8]: two most sensitive compounds
Rate of hydrolysis ([5]; 0% v/v bovine serum): 0.06 nmol/mL/min
Rate of hydrolysis ([5]; 5% v/v bovine serum): 0.22 nmol/mL/min
Rate of hydrolysis ([5]; 10% v/v bovine serum): 0.52 nmol/mL/min
Rate of hydrolysis ([5]; 20% v/v bovine serum): 1.31 nmol/mL/min

SMILES: CS(=O)(=O)N(CCCl)N(S(C)(=O)=O)S(C)(=O)=O [PRIOR ART, 1-(2-chloroethyl)-1,2,2-tris(methylsulfonyl)hydrazine, reference compound]
% 60-day survivors (L1210 leukemia): 100%
AvΔ wt % (average percent change in body weight from onset to termination of therapy) (L1210 leukemia): -7.2%
Opt. effective daily dose (L1210 leukemia): 60 mg/kg
antineoplastic activity (in words) [1]: displays potent antineoplastic activity
